The text below walks through data of ChEMBL document CHEMBL1201862, “PubChem BioAssay data set” (2004).

The nature of data set [1]: cytotoxicity toward NIH3T3 fibroblasts, dose response, counter-screen, cell-based, ATP luminescence, mouse fibroblasts (AID 2010).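 Further: cells exposed to compound for about 90 hours before reading.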 In kind it is functional. In general terms: The purpose of a counterscreen is to sort out artefacts and off-target activity.
A short description of data set [2]: inhibitors of intracellular T. cruzi replication, confirmation, NIH3T3 host cells, beta-gal luminescence (AID 2044).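 Further: intracellular parasites grown in NIH/3T3 mouse fibroblasts as host cells; luminescent beta-galactosidase reporter signal from transgenic T. cruzi replicating inside host cells; inhibitors lower the luminescence signal.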 It is filed as functional, cell-based.
The target in another data set is Cytochrome P450 2D6 (Homo sapiens, UniProt P10635).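 Further: CYP2D6 member of a cytochrome P450 panel assay.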
Chain of Cytochrome P450 2D6 (P10635 whole entry): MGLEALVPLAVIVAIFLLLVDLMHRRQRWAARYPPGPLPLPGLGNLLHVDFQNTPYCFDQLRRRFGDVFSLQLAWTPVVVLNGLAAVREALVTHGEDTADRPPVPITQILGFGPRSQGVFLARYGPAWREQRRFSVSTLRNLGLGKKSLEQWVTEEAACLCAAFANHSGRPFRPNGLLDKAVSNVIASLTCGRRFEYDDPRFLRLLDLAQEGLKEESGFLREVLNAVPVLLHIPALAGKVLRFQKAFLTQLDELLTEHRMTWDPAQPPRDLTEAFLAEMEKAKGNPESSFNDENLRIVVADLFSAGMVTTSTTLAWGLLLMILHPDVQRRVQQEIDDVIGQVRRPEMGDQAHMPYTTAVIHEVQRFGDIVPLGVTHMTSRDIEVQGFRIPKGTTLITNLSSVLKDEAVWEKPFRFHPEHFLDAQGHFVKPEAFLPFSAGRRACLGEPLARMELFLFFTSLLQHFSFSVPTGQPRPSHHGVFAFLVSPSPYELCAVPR
Data set [3] addresses T1, Zinc finger protein mex-5 (Caenorhabditis elegans, UniProt Q9XUB2).
T1 sequence (Q9XUB2 whole entry): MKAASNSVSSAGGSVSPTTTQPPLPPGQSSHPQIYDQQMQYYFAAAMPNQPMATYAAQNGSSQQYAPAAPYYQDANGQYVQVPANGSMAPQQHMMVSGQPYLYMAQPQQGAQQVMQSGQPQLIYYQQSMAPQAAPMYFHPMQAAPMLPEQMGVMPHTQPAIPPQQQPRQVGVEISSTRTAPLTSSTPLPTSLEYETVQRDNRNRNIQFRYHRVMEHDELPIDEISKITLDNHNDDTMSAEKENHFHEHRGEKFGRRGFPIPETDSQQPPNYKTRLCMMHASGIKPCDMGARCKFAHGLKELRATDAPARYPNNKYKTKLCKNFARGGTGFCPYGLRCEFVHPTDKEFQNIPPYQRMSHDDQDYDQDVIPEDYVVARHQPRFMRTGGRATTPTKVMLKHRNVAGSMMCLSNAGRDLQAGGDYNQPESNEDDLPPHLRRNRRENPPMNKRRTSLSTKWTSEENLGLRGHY
Nature of the data set: MEX-5/TCR-2 RNA interaction inhibitors, dose response, biochemical, C. elegans, fluorescence polarization (AID 1960).

Data set [4] deals with T2, RNA-binding protein pos-1 (Caenorhabditis elegans, UniProt G5EF15).
T2 sequence (G5EF15 whole entry): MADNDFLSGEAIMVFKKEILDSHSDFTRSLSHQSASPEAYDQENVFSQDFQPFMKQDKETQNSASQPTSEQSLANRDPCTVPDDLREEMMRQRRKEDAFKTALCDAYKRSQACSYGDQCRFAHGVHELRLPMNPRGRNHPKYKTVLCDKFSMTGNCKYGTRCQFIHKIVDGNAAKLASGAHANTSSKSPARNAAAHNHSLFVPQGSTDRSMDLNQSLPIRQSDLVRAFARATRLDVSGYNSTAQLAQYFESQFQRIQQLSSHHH
Nature of the data set: inhibitors of POS-1/mex-3 RNA binding, dose response, biochemical, fluorescence polarization (AID 1964).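 Further: purified POS-1 fused to maltose binding protein made in E. coli; potency of compounds blocking POS-1 binding to fluorescent RNA.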

The target of another data set is Cytochrome P450 2C19 (Homo sapiens, UniProt P33261). Briefly: Cytochrome panel assay with activity outcomes. Panel member name: p450-cyp2c19 Compounds with AC50 equal or less than 10 uM are considered active. It is filed as functional.
Chain of Cytochrome P450 2C19 (P33261 whole entry): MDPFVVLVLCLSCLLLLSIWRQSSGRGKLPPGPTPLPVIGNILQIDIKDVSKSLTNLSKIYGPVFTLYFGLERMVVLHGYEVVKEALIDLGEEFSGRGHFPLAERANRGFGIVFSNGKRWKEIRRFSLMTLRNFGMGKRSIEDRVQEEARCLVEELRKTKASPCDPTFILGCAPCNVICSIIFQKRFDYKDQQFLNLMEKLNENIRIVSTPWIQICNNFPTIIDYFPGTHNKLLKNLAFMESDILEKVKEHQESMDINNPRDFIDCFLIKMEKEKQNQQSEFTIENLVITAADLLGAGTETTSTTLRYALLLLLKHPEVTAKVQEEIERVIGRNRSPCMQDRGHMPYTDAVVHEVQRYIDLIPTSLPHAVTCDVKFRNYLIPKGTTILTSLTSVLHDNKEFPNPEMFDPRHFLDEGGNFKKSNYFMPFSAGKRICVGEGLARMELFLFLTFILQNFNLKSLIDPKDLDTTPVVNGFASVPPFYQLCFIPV
For a further data set, the system named is Streptococcus. Nature of the data set: Group A Streptococcus viability loss, dose response, counter-screen for streptokinase expression inhibitor project, luminescence, BacTiterGlo (AID 1915).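 Further: potency for reduction of bacterial viability or growth.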 In kind it is functional, organism-based.
Data set [5] relates to Streptococcus sp. 'group A'. Briefly: growth inhibition of control SK(-) GAS strain, dose response, counter-screen for streptokinase expression inhibitor project, luminescence, kanamycin, BacTiterGlo, confirmation (AID 1900). It is filed as functional, organism-based.
Data set [6] can be described thus: growth suppression of beta-catenin-knockout colon cells, dose response, cell-based, HCT116, human colon tumor (AID 1045).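 Further: HCT116 colon tumor cells with beta catenin knocked out; cells exposed to compound for 60 hours.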 In kind it is functional.
The nature of data set [7]: growth suppression of PTEN-null colon cells, dose response, cell-based, HCT116 PTEN knockout (AID 1047).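 Further: HCT116 colon tumor cells with PTEN knocked out; cells exposed to compound for 60 hours before readout; potency for loss of cell viability measured by luminescence.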 It is filed as functional.

Activity calls are given as the source filed them.

Take `CCC(C)NCCOCCOc1ccc(Br)cc1` (stereo unspecified): the concentration for a half-maximal effect (EC50) in data set [1] is > 60 µM (not active); in data set [2] it was 0.106 µM (active).

Regarding `COc1cccc(Cn2c(=O)cnc3cnc(Nc4cccc(OC)c4)nc32)c1`, the AC50 on Cytochrome P450 2D6 is 39.8 µM (inconclusive).

As for `Cc1ccc(-c2c[n+](CC(=O)c3ccc(Br)cc3)c3n2CCCCC3)cc1`, the values for the 50% effective concentration (EC50) in data set [1] and in [2] were > 60 µM (not active) and 0.465 µM (active), respectively.

With `COc1ccc(CCn2c(=N)c(C(=O)NC3CCCCC3)cc3c(=O)n4ccccc4nc32)cc1`, the concentration giving a half-maximal response (EC50) in data set [3] was 8.45 µM (inconclusive); in [4], 21.6 µM (active).

For the molecule `Cc1cc(C)nc(NN2C(=O)C=CC2=O)n1`, the half-maximal effective concentration (EC50) was 40.8 µM (active) in data set [3] and > 300 µM (not active) in [4].

Regarding `CN(CCOc1ccccc1)CC(=O)Nc1ccc(Cl)c(S(=O)(=O)N(C)C)c1`, the figures for the EC50 in data set [1] and in [2] were > 60 µM (not active) and 0.503 µM (active), respectively.

For the molecule `COCc1cc(C)nc(SCC(=O)Nc2cc(C(F)(F)F)ccc2N2CCOCC2)c1C#N`, the EC50 in [1] is > 60 µM (not active); in data set [2], 0.807 µM (active).

Consider `CCOC(=O)C1=NNC2(c3ccc(Cl)cc3)C(=O)N(c3cc(C)cc(C)c3)C(=O)C12` (stereo unspecified), for which the AC50 at Cytochrome P450 2C19 (read-out: AC50) was 2.51 µM (inconclusive).

Turning to `Cc1cc(N2C(=O)C(O)=C(C(=O)c3ccco3)C2c2ccc(O)cc2)no1` (stereo unspecified), the AC50 at Cytochrome P450 2C19 (read-out: AC50) was 35.5 µM (inconclusive).

Take `CCCCCCCC(=O)NNC(=O)c1c(O)c2ccccc2n(CC)c1=O`: the EC50 in the data set on Streptococcus is 6.17 µM (active); in data set [5], 2.31 µM (active).

Consider `NS(=O)(=O)c1ccc2c(c1)C1C=CCC1C(C1CC=CCC1)N2` (stereo unspecified), for which the values for the EC50 in [3] and in data set [4] were 20.7 µM (inconclusive) and 18.3 µM (active), respectively.

Consider `Cc1ccc(C)c(-c2cc(C(=O)NCc3cccs3)c3ccccc3n2)c1`, for which the figures for the half-maximal activity concentration (AC50) on Cytochrome P450 2C19 (read-out: AC50) and on Cytochrome P450 2D6 were 3.55 µM (inconclusive) and 14.1 µM (inconclusive), respectively.

In the case of `CN(C)CCCn1c2ccccc2c2cnccc21`, the half-maximal activity concentration (AC50) at Cytochrome P450 2D6 was 3.98 µM (inconclusive).

In the case of `Ic1cncc(OC[C@@H]2CCN2)c1`, the AC50 at Cytochrome P450 2C19 (read-out: AC50) is 15.8 µM (inconclusive); on Cytochrome P450 2D6, 39.8 µM (inconclusive).

Turning to `COc1ccc(CNc2cc(-c3cccnc3)ncn2)c(OC)c1`, the half-maximal activity concentration (AC50) on Cytochrome P450 2D6 is 39.8 µM (inconclusive).

For the molecule `O=C(NCc1ccccc1)C1=C[C@@H](c2ccc(C(F)(F)F)cc2)C[C@@H](OCc2ccc(CO)cc2)O1`, the figures for the EC50 in data set [1] and in data set [2] were > 60 µM (not active) and 0.669 µM (active), respectively.

In the case of `Cc1nn(-c2ccccn2)c2c1C(c1ccccc1Cl)C1=C(N2)c2ccccc2C1=O` (stereo unspecified), the EC50 in data set [6] was 24.9 µM (active); in data set [7] it was 24.7 µM (active).

As for `CCc1ccccc1N1C(=O)/C(=C/c2ccc(N3CCN(C)CC3)o2)C(=O)NC1=S`, the EC50 in data set [4] was > 300 µM (inconclusive).

On to `C=CCN1C(=O)NC(=O)/C(=C(/CC)NC2CC2)C1=O`, for which the results for the concentration at half-maximal activity (AC50) at Cytochrome P450 2C19 (read-out: AC50) and at Cytochrome P450 2D6 were 22.4 µM (inconclusive) and 1.12 µM (inconclusive), respectively.

As for `Cc1ncn(-c2ccccc2O)c1C`, the concentration at half-maximal activity (AC50) on Cytochrome P450 2D6 was 3.16 µM (inconclusive).

In the case of `O=C(/C=C/c1ccco1)NC(=S)NNC(=O)c1ccco1`, the EC50 in data set [3] was 15.7 µM (active); in [4], 98.1 µM (active).

As for `CC(C)c1ccc(/C=C/C(=O)Nc2nc3ccc([N+](=O)[O-])cc3s2)cc1`, the results for the EC50 in data set [6] and in data set [7] were 41.3 µM (active) and 23.3 µM (active), respectively.

For the molecule `O=C(NC1CCCCC1)C(c1ccc(F)cc1)N(C(=O)Cc1ccsc1)c1ccc(F)cc1` (stereo unspecified), the concentration giving a half-maximal response (EC50) in data set [1] and in data set [2] was > 60 µM (not active) in each case.

Take `Cc1ccc(NC(=O)CCN2C(=O)c3ccncc3C2=O)cc1`: at Cytochrome P450 2C19 (read-out: AC50), the half-maximal activity concentration (AC50) is 39.8 µM (inconclusive).

`Cc1ccc(-n2c(N)c(C(=O)Nc3c(C)n(C)n(-c4ccccc4)c3=O)c3nc4ccccc4nc32)cc1C`: the EC50 in [6] is 11.5 µM (active); in data set [7] it was 8.61 µM (active).

For `CN(CCCNC(=O)c1ccc(/C=N/O)nc1)CCCN(C)Cc1ccccc1`, the AC50 result at Cytochrome P450 2C19 is listed as “inconclusive”.

For `Oc1cccc2ccc(/C=C/c3ccc(Br)s3)nc12`, the concentration for a half-maximal effect (EC50) with Streptococcus is 4.33 µM (active); in [5], 2.56 µM (active).

With `CCCCCCn1c(N)c(C(=O)NCCN2CCOCC2)c2nc3ccccc3nc21`, the results for the EC50 in data set [6] and in data set [7] were 19.7 µM (active) and 17.7 µM (active), respectively.

`Cc1c(C(=O)O)cccc1-n1c(C)cc(/C=C(/C#N)C(=O)NCc2ccccc2)c1C`: the EC50 in [3] and in [4] was > 300 µM (not active) throughout.

For `C#CCN1C(=O)C(O)(CC(=O)c2ccc3c(c2)OCCO3)c2ccccc21` (stereo unspecified), the EC50 in data set [6] and in data set [7] was 29.7 µM (active) each time.

Regarding `Cc1ccc(CCNC(=O)CN2C(=O)COc3ccccc32)cc1`, the results for the EC50 in data set [1] and in [2] were > 60 µM (not active) and 16.4 µM (active), respectively.

On to `O=C(Nc1ccccc1C(=O)Nc1nnc(C(F)(F)F)s1)c1ccccc1Cl`, for which the EC50 in the data set on Streptococcus was 3.2 µM (active); in [5] it was 1.36 µM (active).

`COc1ccc(Cl)cc1C(=O)C1CCCN(Cc2cnc(N3CCOCC3)s2)C1` (stereo unspecified): the EC50 in data set [1] was > 60 µM (not active); in data set [2], 0.135 µM (active).

Turning to `CN1CCN(c2ccc(S(=O)(=O)N3CCCCC3)cc2NC(=O)c2ccc(C#N)cc2)CC1`, the results for the EC50 in data set [1] and in data set [2] were > 60 µM (not active) and 1.14 µM (active), respectively.

Regarding `COC(=O)N1CCC2(CCN(C(=O)Nc3ccccc3)CC2)CC1`, the AC50 on Cytochrome P450 2C19 (read-out: AC50) is 20 µM (inconclusive).

With `CC(=O)C1=C(c2ccccc2)NC(=O)NC1c1ccc(O)c(O)c1` (stereo unspecified), the EC50 in data set [3] is 43.4 µM (active); in [4], > 300 µM (not active).

As to `CCCCCCC1CC(C)(C(=O)CNc2nncs2)OC1=O` (stereo unspecified), the EC50 in [1] was 23.8 µM (active); in data set [2] it was 1.3 µM (active).

Take `CCOc1ccc2ccccc2c1C1NC(=O)N(C)C(C)=C1C(=O)OCCOC` (stereo unspecified): the concentration for a half-maximal effect (EC50) in data set [3] and in data set [4] was > 300 µM (not active) throughout.

As to `COc1ccc(CNc2ccc3c(c2)CCC3)cc1OC`, the figures for the EC50 in data set [1] and in [2] were > 30 µM (not active) and 15.4 µM (active), respectively.

Turning to `NCCNc1ncnc2ccc(Cl)cc12`, the concentration at half-maximal activity (AC50) at Cytochrome P450 2D6 was 3.16 µM (inconclusive).

As to `Cc1noc(C)c1-c1nc(NCc2cccs2)c2ccccc2n1`, the AC50 on Cytochrome P450 2D6 is 3.98 µM (inconclusive).

With `Fc1ccc(SCCc2ccncc2)cc1`, the EC50 in data set [1] was > 30 µM (not active); in data set [2], 1.27 µM (active).

Turning to `CC(=O)Nc1nc(-c2ccccc2)nc(-c2ccccc2OC(C)=O)n1`, the EC50 in data set [6] was 118 µM (active); in data set [7], 73.1 µM (active).

As for `FC(F)(F)COc1nc(N/N=C/c2cccnc2)nc(N2CCCCC2c2ccccn2)n1` (stereo unspecified), the concentration for a half-maximal effect (EC50) in data set [1] is > 60 µM (not active); in data set [2] it was 2.37 µM (active).

In general, EC50 refers to the concentration that produces a half-maximal response. The term AC50 denotes the concentration at which the activity in the assay is half-maximal.
